Laboratory results: PubChem BioAssay (NCI)
Where “and” joins values, the source holds several entries; their conditions need not be identical. Equal values may be shown once.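 Protocol summary: plate cells (96-well), add compound at 5 concentrations, incubate 48 h, interpolate endpoints linearly. The concentration for full growth arrest is given as TGI.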

Legend:
Test in all cases: NCI anticancer screen, dose series, 48 h
HCT-116 colon = tested on: HCT-116 colon
A549 NSCLC = tested on: A549 NSCLC
SNB-19 CNS = tested on: SNB-19 CNS
MDA-MB-231 breast = tested on: MDA-MB-231 breast
HCT-15 colon = tested on: HCT-15 colon
EKVX NSCLC = tested on: EKVX NSCLC
OVCAR-3 ovarian = tested on: OVCAR-3 ovarian
786-0 renal = tested on: 786-0 renal
U251 CNS = tested on: U251 CNS
SR leukemia = tested on: SR leukemia

Row | Compound | TGI (HCT-116 colon) [µM] | TGI (A549 NSCLC) [µM] | TGI (SNB-19 CNS) [µM] | TGI (MDA-MB-231 breast) [µM] | TGI (HCT-15 colon) [µM] | TGI (EKVX NSCLC) [µM] | TGI (OVCAR-3 ovarian) [µM] | TGI (786-0 renal) [µM] | TGI (U251 CNS) [µM] | TGI (SR leukemia)
1 | Cc1cc(-c2[nH]c(C(=O)O)cc2I)on1 | > 100 | > 100 | > 100 | > 100 | > 100 | > 100 | > 100 | > 100 | > 100 | 
2 | O=c1/c(=C\c2ccccc2)sc2n1C(c1ccccc1)C1(O)CCCCC1N=2 (stereo not given) | > 100 | > 100 | > 100 | > 100 | > 100 |  | > 100 | > 100 | > 100 | > 100 µM
3 | C=CCOc1ccccc1N=N/C(C#N)=N\Nc1ccccc1OCC=C | > 100 | > 100 | > 100 | > 100 | > 100 | > 100 | > 100 | > 100 | > 100 | > 100 µM
4 | O=C1C(F)=CC(COC(c2ccccc2)(c2ccccc2)c2ccccc2)OC1n1cc(F)c(=O)[nH]c1=O (stereo not given) | 10.9 | 6.12 | 12.8 | 18.5 | 5.95 | > 24.4 | 3.21 | 3.92 | 4.71 | > 100 µM
5 | FC(F)(F)c1ccccc1N1CCN(c2nc(-c3cccs3)nc3ccc(Br)cc23)CC1 | > 100 | > 100 | > 100 | 74 | > 100 | > 100 | 76.2 | > 100 | > 100 | > 100 µM
6 | Cc1ccc(OCC2OC(n3cnc4c(N(C)C)nc(Br)nc43)CC2Oc2ccc(C)cc2)cc1 (stereo not given) | > 100 | > 100 | > 100 | > 100 | > 100 | > 100 | > 100 | > 100 | > 100 | 
7 | c1ccc(-c2sc(-c3cccs3)cc2Cc2cccs2)cc1 | > 10 | > 10 | > 10 | > 10 | > 10 | > 10 |  | > 10 |  | > 10 µM
8 | Cc1c2c(cc3c1[nH]c1ccccc13)C=NCC2 | 14.6 | 61.6 | 45.8 |  | 61.8 | 78.9 | 11.8 |  | 47.3 | 
9 | CCOC(=O)Nc1c(C#N)[n+]([O-])c2cc(Cl)c(Cl)cc2[n+]1[O-] | 59.3 | 69.8 | 65.9 | 35.8 | 25.8 |  | 42.6 | 41.7 | 32.6 | 24.3 µM
10 | NC(=O)c1nnc2cc(F)ccc2c1N | > 100 | > 100 | > 100 | > 100 | > 100 | > 100 | > 100 | > 100 | > 100 | > 100 µM
11 | NCCCn1c2ccccc2c2c3c(c4c(c21)CCC(O)CC4)C(=O)NC3=O (stereo not given) | 28.4 | 21.6 |  | 14.4 | 23 | 23.7 | 12.2 | 16.8 | 13.1 | 5.15 µM
12 | COc1cc2c(c(OC)c1OC)-c1ccc(SC)c(=O)cc1[C@@H](OC(C)=O)CC2 | > 100 | > 100 | > 100 | > 100 | > 100 | > 100 |  | > 100 | > 100 | > 100 µM
13 | CCC1C(c2cccc(OC)c2O)c2cc3c(cc2OC1N1CCCC1)OCO3 (stereo not given) | 21.2 | 54.7 | 46.9 |  | 40.3 | > 100 | 44.5 | 41.2 |  | 50.4 µM
14 | CN(C(=O)Cc1ccc(Cl)c(Cl)c1)[C@H]1CCCC[C@@H]1[N+]1(C)CCCC1 | > 100 | > 100 | > 100 | > 100 | > 100 | > 100 | > 100 | > 100 | > 100 | > 100 µM
15 | CC(C)C(C/C=C1\CC(CO)(COC(=O)c2ccccc2)OC1=O)C(C)C (stereo not given) | 31 | 30.5 | 31.8 | 44.2 | 41 | 29.8 | 37.7 | 28.3 | 39.1 | > 100 µM
16 | CCCCCC(=O)c1ccc2[nH]c3c(C)cc([N+](=O)[O-])c(C)c3c2c1 | > 100 | > 100 | > 100 |  | > 100 | > 100 | > 100 | > 100 |  | > 100 µM
17 | CCOC(=O)Oc1cc2c(c(OC)c1OC)-c1ccc(SC)c(=O)cc1C(NC(=O)C(F)(F)F)CC2 (stereo not given) |  | > 100 | > 100 |  | > 100 |  |  | 13 | 0.0148 | 5.4 µM and 15.6 µM
18 | O=[N+]([O-])/C(C(Cl)=C(Cl)Cl)=C1\NCCO1 | > 100 | > 100 | > 100 | > 100 | > 100 | > 100 | > 100 | > 100 | > 100 | > 100 µM
19 | N#Cc1c(SCc2ccccc2)nc(-c2ccccc2)[nH]c1=S | 51.8 | > 100 | > 100 | > 100 | 50.4 | 93.6 | 36.3 | 48 | 45.1 | 
20 | C/C(=N/NC(=S)Nc1ccccc1Cl)c1cccc(/C(C)=N\NC(=S)Nc2ccccc2Cl)n1 | 49.4 | > 100 | > 100 | 75.2 | > 100 | > 100 | > 100 | > 100 | > 100 | > 100 µM
21 | COc1cc(OC)c2c(O)c3c(cc2c1)CC(C)(C)CC3=O | > 100 | > 100 | > 100 | > 100 | > 100 | > 100 | > 100 | > 100 | > 100 | > 100 µM
22 | CC(C)[C@@H]1CC[C@@H](C)C[C@H]1OC(=O)/C=C1/C2C=CC(O2)C1C(=O)O[C@@H]1C[C@H](C)CC[C@H]1C(C)C (stereo not given in full) | > 100 | > 100 | > 100 | > 100 | > 100 | > 100 | > 100 | > 100 | > 100 | > 100 µM
